Laboratory results: ChEMBL document CHEMBL1909046, “DrugMatrix in vitro pharmacology data”

What was measured:
[1] = target: T1, Vasoactive intestinal polypeptide receptor 1 (Homo sapiens, UniProt P32241); assay type: cell membranes, Membrane; conditions: ht-29; note: in other assays of this panel Not Active means under 50% inhibition at 10 µM
T1 sequence (P32241 whole entry): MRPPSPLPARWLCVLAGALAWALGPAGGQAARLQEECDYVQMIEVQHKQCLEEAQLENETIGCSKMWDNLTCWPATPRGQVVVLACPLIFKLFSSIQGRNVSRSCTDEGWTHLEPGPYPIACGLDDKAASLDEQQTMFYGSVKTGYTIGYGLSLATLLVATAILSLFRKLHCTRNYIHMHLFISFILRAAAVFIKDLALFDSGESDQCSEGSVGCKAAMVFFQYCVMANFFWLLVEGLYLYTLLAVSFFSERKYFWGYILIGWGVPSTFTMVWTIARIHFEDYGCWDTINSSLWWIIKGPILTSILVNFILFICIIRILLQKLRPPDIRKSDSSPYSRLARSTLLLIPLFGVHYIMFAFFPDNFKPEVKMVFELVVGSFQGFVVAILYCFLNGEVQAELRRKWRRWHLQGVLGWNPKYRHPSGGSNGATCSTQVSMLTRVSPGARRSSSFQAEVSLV

[2] = target: Protein kinase C alpha type (Homo sapiens, UniProt P17252); assay type: cell-based; conditions: sf9;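 note: inhibition of PKCalpha kinase activity measured in an enzyme assay with histone as the phosphorylation substrate; in other assays of this panel Not Active means under 50% inhibition at 10 µM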
[3] = target: Epidermal growth factor receptor (Homo sapiens, UniProt P00533); experiment: DRUGMATRIX: Protein Tyrosine Kinase, EGF Receptor enzyme inhibition (substrate: Poly(Glu:Tyr)); assay type: cell-based, Insect cells; conditions: Not Active = under 50% inhibition at 10 µM
[4] = target: Cannabinoid receptor 1 (Homo sapiens, UniProt P21554); assay type: cell membranes, Chem-1, Membrane; conditions: chem-1; note: in other assays of this panel Not Active means under 50% inhibition at 10 µM
Sequence of Cannabinoid receptor 1 (P21554 whole entry): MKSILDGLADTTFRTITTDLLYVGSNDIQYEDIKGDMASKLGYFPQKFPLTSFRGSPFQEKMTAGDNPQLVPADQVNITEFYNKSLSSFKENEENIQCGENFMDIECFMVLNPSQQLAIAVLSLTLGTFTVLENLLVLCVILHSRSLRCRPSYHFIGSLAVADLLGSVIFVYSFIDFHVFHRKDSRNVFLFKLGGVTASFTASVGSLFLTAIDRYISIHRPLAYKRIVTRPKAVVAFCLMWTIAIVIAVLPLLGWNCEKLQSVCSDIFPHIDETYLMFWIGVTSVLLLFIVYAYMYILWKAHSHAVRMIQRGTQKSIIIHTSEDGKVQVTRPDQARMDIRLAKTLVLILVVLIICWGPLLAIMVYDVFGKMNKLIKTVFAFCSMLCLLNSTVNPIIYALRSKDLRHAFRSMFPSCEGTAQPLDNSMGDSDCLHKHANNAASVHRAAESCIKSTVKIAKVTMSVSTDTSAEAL

[5] = target: T2, Alpha-2A adrenergic receptor (Homo sapiens, UniProt P08913); assay type: cell membranes, Sf9, Membrane; note: in other assays of this panel Not Active means under 50% inhibition at 10 µM
T2 sequence (P08913 whole entry): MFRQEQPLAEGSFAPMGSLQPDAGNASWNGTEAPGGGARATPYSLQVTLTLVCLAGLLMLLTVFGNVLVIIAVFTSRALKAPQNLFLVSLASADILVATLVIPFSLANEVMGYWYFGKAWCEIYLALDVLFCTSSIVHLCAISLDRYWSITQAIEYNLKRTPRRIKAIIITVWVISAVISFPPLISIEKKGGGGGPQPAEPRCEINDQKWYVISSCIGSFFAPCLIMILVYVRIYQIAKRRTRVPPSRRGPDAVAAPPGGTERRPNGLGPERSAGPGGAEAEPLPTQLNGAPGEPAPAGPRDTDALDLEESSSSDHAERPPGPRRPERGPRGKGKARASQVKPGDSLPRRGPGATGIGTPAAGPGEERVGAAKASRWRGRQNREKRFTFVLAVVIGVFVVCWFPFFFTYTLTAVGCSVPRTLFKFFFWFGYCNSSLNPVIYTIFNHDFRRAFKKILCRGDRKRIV

[6] = target: T3, Androgen receptor (Rattus norvegicus, UniProt P15207); note: in other assays of this panel Not Active means under 50% inhibition at 10 µM
T3 sequence (P15207 whole entry): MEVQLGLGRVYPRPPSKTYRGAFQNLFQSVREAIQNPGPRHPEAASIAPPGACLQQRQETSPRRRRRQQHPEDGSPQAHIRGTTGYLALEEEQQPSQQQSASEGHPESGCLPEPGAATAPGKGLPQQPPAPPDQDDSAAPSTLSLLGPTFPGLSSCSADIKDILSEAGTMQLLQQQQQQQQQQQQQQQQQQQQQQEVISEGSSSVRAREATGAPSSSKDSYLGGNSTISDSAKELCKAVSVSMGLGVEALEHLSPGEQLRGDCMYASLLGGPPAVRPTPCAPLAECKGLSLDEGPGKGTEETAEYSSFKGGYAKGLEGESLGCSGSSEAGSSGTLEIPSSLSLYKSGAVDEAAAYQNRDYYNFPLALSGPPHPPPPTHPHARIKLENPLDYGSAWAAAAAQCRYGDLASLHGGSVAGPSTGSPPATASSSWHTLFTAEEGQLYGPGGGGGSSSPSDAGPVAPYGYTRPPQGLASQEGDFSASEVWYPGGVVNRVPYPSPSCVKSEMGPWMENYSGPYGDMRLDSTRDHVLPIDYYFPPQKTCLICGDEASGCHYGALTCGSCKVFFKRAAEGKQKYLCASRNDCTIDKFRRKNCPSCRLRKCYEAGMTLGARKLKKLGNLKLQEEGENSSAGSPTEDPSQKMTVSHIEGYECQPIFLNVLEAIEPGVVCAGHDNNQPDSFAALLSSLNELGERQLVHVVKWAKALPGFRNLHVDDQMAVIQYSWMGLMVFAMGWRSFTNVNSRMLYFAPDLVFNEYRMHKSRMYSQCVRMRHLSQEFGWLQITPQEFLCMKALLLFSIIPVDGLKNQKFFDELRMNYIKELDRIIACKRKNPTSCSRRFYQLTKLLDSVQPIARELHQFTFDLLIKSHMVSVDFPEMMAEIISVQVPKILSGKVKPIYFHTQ

[7] = target: T4, Cytochrome P450 1A2 (Homo sapiens, UniProt P05177); note: in other assays of this panel Not Active means under 50% inhibition at 10 µM
T4 sequence (P05177 whole entry): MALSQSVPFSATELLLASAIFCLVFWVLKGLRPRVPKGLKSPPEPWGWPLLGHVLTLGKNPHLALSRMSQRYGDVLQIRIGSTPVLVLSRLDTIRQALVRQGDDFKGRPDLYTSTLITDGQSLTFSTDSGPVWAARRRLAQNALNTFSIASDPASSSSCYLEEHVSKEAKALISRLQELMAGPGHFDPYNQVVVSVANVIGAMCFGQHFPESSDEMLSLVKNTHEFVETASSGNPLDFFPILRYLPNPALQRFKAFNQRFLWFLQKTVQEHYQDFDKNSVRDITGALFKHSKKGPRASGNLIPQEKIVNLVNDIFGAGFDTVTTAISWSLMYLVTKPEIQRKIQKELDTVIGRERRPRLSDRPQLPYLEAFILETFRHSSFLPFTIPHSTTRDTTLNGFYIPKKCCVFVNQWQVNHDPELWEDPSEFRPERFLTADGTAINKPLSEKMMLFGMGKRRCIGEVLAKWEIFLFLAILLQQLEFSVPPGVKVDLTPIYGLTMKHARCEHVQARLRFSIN

[8] = target: Cytochrome P450 2D6 (Homo sapiens, UniProt P10635); note: in other assays of this panel Not Active means under 50% inhibition at 10 µM
Sequence of Cytochrome P450 2D6 (P10635 whole entry): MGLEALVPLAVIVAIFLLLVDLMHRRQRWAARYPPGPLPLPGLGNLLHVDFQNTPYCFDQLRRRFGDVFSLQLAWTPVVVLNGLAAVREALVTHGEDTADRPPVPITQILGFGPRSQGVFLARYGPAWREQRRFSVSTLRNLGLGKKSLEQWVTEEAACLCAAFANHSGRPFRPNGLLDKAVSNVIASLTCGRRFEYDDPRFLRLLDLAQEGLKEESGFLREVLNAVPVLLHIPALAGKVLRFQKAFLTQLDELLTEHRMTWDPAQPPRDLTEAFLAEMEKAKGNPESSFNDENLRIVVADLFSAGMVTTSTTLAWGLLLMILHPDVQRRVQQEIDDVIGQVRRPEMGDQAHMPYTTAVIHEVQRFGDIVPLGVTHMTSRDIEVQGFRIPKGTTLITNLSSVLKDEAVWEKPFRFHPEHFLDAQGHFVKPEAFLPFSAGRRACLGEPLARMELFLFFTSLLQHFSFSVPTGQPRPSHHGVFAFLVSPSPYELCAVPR

Row | Molecule | IC50 [1] | Ki [1] | IC50 [2] | Ki [2] | IC50 ([3]; insect cells) | Ki ([3]; insect cells) | IC50 [4] | Ki [4] | IC50 ([5]; sf9) | Ki ([5]; sf9) | IC50 [6] | Ki [6] | IC50 [7] | IC50 ([5]; read-out: IC50) | Ki ([5]; read-out: Ki) | IC50 [8] | IC50 ([3]; read-out: IC50)
1 | CARBOXYMETHYLCELLULOSE | Not Active | Not Active | Not Active | Not Active | Not Active | Not Active | Not Active | Not Active | Not Active | Not Active | Not Active | Not Active | – | – | – | – | –
2 | CC(=O)Nc1ccc2c(c1)Cc1ccccc1-2 [2-ACETYLAMINOFLUORENE] | Not Active | – | Not Active | – | Not Active | – | Not Active | – | – | – | – | – | 0.016 µM | 21.1 µM | 7.9 µM | – | –
3 | COc1ccccc1OCCNCC(O)COc1cccc2[nH]c3ccccc3c12 (stereo not given) [CARVEDILOL] | Not Active | – | Not Active | – | Not Active | – | Not Active | – | – | – | Not Active | – | – | 0.106 µM | 0.04 µM | – | –
4 | CC(N)Cc1c[nH]c2ccc(OCc3cccs3)cc12 (stereo not given) [BW-723C86] | Not Active | – | Not Active | – | Not Active | – | Not Active | – | Not Active | – | Not Active | – | 0.874 µM | – | – | 2.77 µM | –
5 | C=C(Cl)Cl [1,1-DICHLOROETHENE] | Not Active | – | Not Active | – | Not Active | – | Not Active | – | Not Active | – | Not Active | – | – | – | – | – | –
6 | COPPER(II) OXIDE | Not Active | Not Active | Not Active | Not Active | Not Active | Not Active | Not Active | Not Active | Not Active | Not Active | Not Active | Not Active | – | – | – | – | –
7 | CN(CCOc1ccc(C[C@H](Nc2ccccc2C(=O)c2ccccc2)C(=O)O)cc1)c1ccccn1 | Not Active | – | Not Active | – | – | – | Not Active | – | Not Active | – | Not Active | – | – | – | – | – | 10.9 µM
8 | COc1cc([C@@H]2c3cc4c(cc3[C@H](O)[C@H]3COC(=O)[C@H]23)OCO4)cc(OC)c1OC [PODOFILOX] | Not Active | – | Not Active | – | Not Active | – | Not Active | – | Not Active | – | Not Active | – | – | – | – | – | –
9 | CCN1CCN(c2cc3c(cc2F)c(=O)c(C(=O)O)cn3C2CC2)CC1 [ENROFLOXACIN] | Not Active | – | Not Active | – | Not Active | – | Not Active | – | Not Active | – | Not Active | – | – | – | – | – | –
10 | c1ccc(Cn2ccnc2)cc1 | Not Active | – | Not Active | – | Not Active | – | Not Active | – | Not Active | – | Not Active | – | 0.2 µM | – | – | 2 µM | –
11 | C=CCN1CC[C@]23c4c5ccc(O)c4O[C@H]2/C(=N/N=C2\CC[C@@]4(O)[C@H]6Cc7ccc(O)c8c7[C@@]4(CCN6CC=C)[C@H]2O8)CC[C@@]3(O)[C@H]1C5 [NALOXONAZINE] | Not Active | – | Not Active | – | Not Active | – | Not Active | – | Not Active | – | Not Active | – | – | – | – | – | –
12 | CCCCCCNC(=O)n1cc(F)c(=O)[nH]c1=O [CARMOFUR] | Not Active | – | Not Active | – | Not Active | – | Not Active | – | Not Active | – | – | – | – | – | – | 5 µM | –
